Assay results taken from PubChem BioAssay (NCI).
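Tested at 5 concentrations; 48 h exposure; 96-well plates; endpoints linearly interpolated, else capped at highest concentration. At the GI50, growth is halved. TGI marks complete inhibition of growth.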

Key:
Experiment in all cases: NCI-60 cell line screen, 48 h; in the data active = GI50 below about 0.43 µM; inactive = the rest
SK-OV-3 ovarian = test system: SK-OV-3 ovarian
SR leukemia = test system: SR leukemia
SF-268 CNS = test system: SF-268 CNS
UACC-257 melanoma = test system: UACC-257 melanoma
EKVX NSCLC = test system: EKVX NSCLC
CAKI-1 renal = test system: CAKI-1 renal
HOP-92 NSCLC = test system: HOP-92 NSCLC
NCI-H23 lung = test system: NCI-H23 lung
U251 CNS = test system: U251 CNS
A498 renal = test system: A498 renal

O=C(CSCC(=O)N/N=C/c1ccccc1O)N/N=C\c1ccccc1O
22.5 µM: TGI (UACC-257 melanoma)
9.82 µM: TGI (CAKI-1 renal)
inactive: GI50 (SK-OV-3 ovarian) 2.4 µM | GI50 (SR leukemia) 0.668 µM | GI50 (SF-268 CNS) 1.2 µM | GI50 (UACC-257 melanoma) 3.09 µM | GI50 (EKVX NSCLC) 2.44 µM | GI50 (CAKI-1 renal) 0.627 µM | GI50 (HOP-92 NSCLC) 1.73 µM | GI50 (NCI-H23 lung) 3.33 µM | GI50 (U251 CNS) 1.06 µM | GI50 (A498 renal) 14.3 µM
> 100 µM: TGI (SK-OV-3 ovarian) | TGI (SR leukemia) | TGI (SF-268 CNS) | TGI (EKVX NSCLC) | TGI (HOP-92 NSCLC) | TGI (NCI-H23 lung) | TGI (U251 CNS) | TGI (A498 renal)

Cc1cc(C(=O)Nc2n[nH]c3ccccc23)n[nH]1
> 100 µM: TGI (SK-OV-3 ovarian) | TGI (SR leukemia) | TGI (SF-268 CNS) | TGI (UACC-257 melanoma) | TGI (EKVX NSCLC) | TGI (CAKI-1 renal) | TGI (HOP-92 NSCLC) | TGI (NCI-H23 lung) | TGI (U251 CNS) | TGI (A498 renal)
inactive: GI50 (SK-OV-3 ovarian) > 100 µM | GI50 (SR leukemia) 80.6 µM | GI50 (SF-268 CNS) > 100 µM | GI50 (UACC-257 melanoma) > 100 µM | GI50 (EKVX NSCLC) > 100 µM | GI50 (CAKI-1 renal) 90.5 µM | GI50 (HOP-92 NSCLC) > 100 µM | GI50 (NCI-H23 lung) > 100 µM | GI50 (U251 CNS) > 100 µM | GI50 (A498 renal) > 100 µM

Cc1ccc(Nc2cc(Cl)c([N+](=O)[O-])cc2[N+](=O)[O-])cc1
14.2 µM: TGI (NCI-H23 lung)
29.7 µM: TGI (EKVX NSCLC)
9.48 µM: TGI (HOP-92 NSCLC)
13.1 µM: TGI (SK-OV-3 ovarian)
18.1 µM: TGI (SR leukemia)
12.4 µM: TGI (U251 CNS)
17.4 µM: TGI (CAKI-1 renal)
26.1 µM: TGI (A498 renal)
inactive: GI50 (SK-OV-3 ovarian) 4.55 µM | GI50 (SR leukemia) 0.927 µM | GI50 (SF-268 CNS) 3.63 µM | GI50 (UACC-257 melanoma) 5.25 µM | GI50 (EKVX NSCLC) 14.7 µM | GI50 (CAKI-1 renal) 4.19 µM | GI50 (HOP-92 NSCLC) 2.69 µM | GI50 (NCI-H23 lung) 3.66 µM | GI50 (U251 CNS) 3.36 µM | GI50 (A498 renal) 13.3 µM
10.3 µM: TGI (SF-268 CNS)
15.7 µM: TGI (UACC-257 melanoma)

O=S(=O)(NCCNc1nccc(-c2c(-c3ccc(F)c(O)c3)nc3sccn23)n1)c1ccc(Cl)cc1
16 µM: TGI (U251 CNS)
11.7 µM: TGI (A498 renal)
> 50 µM: TGI (SR leukemia) | TGI (UACC-257 melanoma) | TGI (EKVX NSCLC)
15.9 µM: TGI (SK-OV-3 ovarian)
10.4 µM: TGI (CAKI-1 renal)
12.2 µM: TGI (NCI-H23 lung)
inactive: GI50 (SK-OV-3 ovarian) 2.8 µM | GI50 (SR leukemia) 1.87 µM | GI50 (SF-268 CNS) 1.8 µM | GI50 (UACC-257 melanoma) 2.53 µM | GI50 (EKVX NSCLC) 2.19 µM | GI50 (CAKI-1 renal) 1.99 µM | GI50 (HOP-92 NSCLC) 2.39 µM | GI50 (NCI-H23 lung) 3.56 µM | GI50 (U251 CNS) 3.81 µM | GI50 (A498 renal) 1.63 µM
13.4 µM: TGI (SF-268 CNS)
13.8 µM: TGI (HOP-92 NSCLC)

CCCCCCCCOCC(O)CO (stereo not given)
> 100 µM: TGI (SK-OV-3 ovarian) | TGI (SR leukemia) | TGI (SF-268 CNS) | TGI (UACC-257 melanoma) | TGI (EKVX NSCLC) | TGI (CAKI-1 renal) | TGI (HOP-92 NSCLC) | TGI (NCI-H23 lung) | TGI (U251 CNS) | TGI (A498 renal)

CCN(CC)c1c(-c2ccccc2)n[nH]c1C(=O)OC
56.8 µM: TGI (EKVX NSCLC)
51.1 µM: TGI (HOP-92 NSCLC)
inactive: GI50 (SK-OV-3 ovarian) 17.4 µM | GI50 (SR leukemia) 17.2 µM | GI50 (SF-268 CNS) 22.9 µM | GI50 (UACC-257 melanoma) 12.6 µM | GI50 (EKVX NSCLC) 21.2 µM | GI50 (CAKI-1 renal) 25.8 µM | GI50 (HOP-92 NSCLC) 17.8 µM | GI50 (NCI-H23 lung) 42.4 µM | GI50 (U251 CNS) 25.2 µM | GI50 (A498 renal) 0.519 µM
> 100 µM: TGI (NCI-H23 lung)
59.7 µM: TGI (SF-268 CNS)
36.5 µM: TGI (UACC-257 melanoma)
31.7 µM: TGI (A498 renal)
55.5 µM: TGI (CAKI-1 renal)
80.1 µM: TGI (SR leukemia)
66.4 µM: TGI (U251 CNS)
50.5 µM: TGI (SK-OV-3 ovarian)

C/C(=N\NC(N)=S)c1ccc(C)c(C)c1
> 100 µM: TGI (SK-OV-3 ovarian) | TGI (SR leukemia) | TGI (SF-268 CNS) | TGI (UACC-257 melanoma) | TGI (EKVX NSCLC) | TGI (CAKI-1 renal) | TGI (HOP-92 NSCLC) | TGI (NCI-H23 lung) | TGI (U251 CNS) | TGI (A498 renal)

O=C(O)C1CC=CCC1C(=O)Nc1cccc(O)c1 (stereo not given)
> 100 µM: TGI (SK-OV-3 ovarian) | TGI (SR leukemia) | TGI (SF-268 CNS) | TGI (UACC-257 melanoma) | TGI (EKVX NSCLC) | TGI (CAKI-1 renal) | TGI (HOP-92 NSCLC) | TGI (NCI-H23 lung) | TGI (U251 CNS) | TGI (A498 renal)
